Assay results as given in the supplement of paper PMC10307832.

Tests used:
Experiment in all cases: relative viability (nuclei count vs DMSO), 5 days (fraction); higher = more cells survive
Temozolomide + Foretinib = compound: Cn1nnc2c(C(N)=O)ncn2c1=O [Temozolomide] + COc1cc2c(Oc3ccc(NC(=O)C4(C(=O)Nc5ccc(F)cc5)CC4)cc3F)ccnc2cc1OCCCN1CCOCC1 [Foretinib] (partner 0.25 µM)
Procedure, shortened: (§1)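 Lung cancer cell lines were seeded in 1536-well plates and dosed by pin tool the next day, with either a single drug or a fixed anchor-drug dose combined with five library-drug doses (not always all listed) spaced in √10 steps. Five days later, one step fixed the cells and stained their nuclei (final 0.05% Triton X-100, 1% formaldehyde, 1 ug/ml Hoechst), and nuclei were counted on 4× images. Relative viability is the nuclei count in treated wells divided by the count in vehicle wells, and each value is the median of duplicate plates.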

AZD5582 + Alpelisib = compound: C[C@@H](C(=O)N[C@@H](C1CCCCC1)C(=O)N2CCC[C@H]2C(=O)N[C@@H]3[C@@H](CC4=CC=CC=C34)OCC#CC#CCO[C@@H]5CC6=CC=CC=C6[C@@H]5NC(=O)[C@@H]7CCCN7C(=O)[C@H](C8CCCCC8)NC(=O)[C@H](C)NC)NC [AZD5582] + Cc1nc(NC(=O)N2CCC[C@H]2C(N)=O)sc1-c1ccnc(C(C)(C)C(F)(F)F)c1 [Alpelisib] (partner 2 µM)
Procedure, shortened: as §1

AZD5582 + Dasatinib = compound: C[C@@H](C(=O)N[C@@H](C1CCCCC1)C(=O)N2CCC[C@H]2C(=O)N[C@@H]3[C@@H](CC4=CC=CC=C34)OCC#CC#CCO[C@@H]5CC6=CC=CC=C6[C@@H]5NC(=O)[C@@H]7CCCN7C(=O)[C@H](C8CCCCC8)NC(=O)[C@H](C)NC)NC [AZD5582] + Cc1nc(Nc2ncc(C(=O)Nc3c(C)cccc3Cl)s2)cc(N2CCN(CCO)CC2)n1 [Dasatinib] (partner 0.075 µM)
Procedure, shortened: as §1

[1] = compound: Cn1nnc2c(C(N)=O)ncn2c1=O [Temozolomide] + N=C(N)NC(=N)NCCc1ccccc1 [Phenformin] (partner 250 µM)
Procedure, shortened: as §1

Row | Cell Line | relative viability (Temozolomide + Foretinib; first compound 0.2 µM) | relative viability (Temozolomide + Foretinib; first compound 0.6325 µM) | relative viability (Temozolomide + Foretinib; first compound 2 µM) | relative viability (Temozolomide + Foretinib; first compound 6.325 µM) | relative viability (Temozolomide + Foretinib; first compound 20 µM) | relative viability (AZD5582 + Alpelisib; first compound 0.001581 µM) | relative viability (AZD5582 + Alpelisib; first compound 0.005 µM) | relative viability (AZD5582 + Alpelisib; first compound 0.01581 µM) | relative viability (AZD5582 + Alpelisib; first compound 0.05 µM) | relative viability (AZD5582 + Dasatinib; first compound 0.001581 µM) | relative viability (AZD5582 + Dasatinib; first compound 0.005 µM) | relative viability (AZD5582 + Dasatinib; first compound 0.01581 µM) | relative viability (AZD5582 + Dasatinib; first compound 0.05 µM) | relative viability ([1]; first compound 0.2 µM) | relative viability ([1]; first compound 0.6325 µM) | relative viability ([1]; first compound 2 µM) | relative viability ([1]; first compound 6.325 µM) | relative viability ([1]; first compound 20 µM)
1 | LOU-NH91 | 0.674 | 0.913 | 0.941 | 0.568 | 0.569 | 0.752 | 0.747 | 0.787 | 0.775 | 0.553 | 0.565 | 0.468 | 0.657 | 0.612 | 0.74 | 0.711 | 0.788 | 0.476
2 | LU99A | 0.874 | 0.851 | 0.832 | 0.784 | 0.73 | 0.554 | 0.594 | 0.499 | 0.611 | 0.443 | 0.608 | 0.537 | 0.483 | 0.983 | 0.8 | 0.865 | 0.68 | 0.803
3 | LXF-289 | 0.978 | 0.998 | 0.985 | 0.964 | 0.908 | 1 | 1.04 | 0.988 | 1.07 | 0.228 | 0.236 | 0.154 | 0.13 | 0.553 | 0.53 | 0.511 | 0.457 | 0.458
4 | NCI-H23 | 1.02 | 0.979 | 0.97 | 0.778 | 1.05 | 0.446 | 0.456 | 0.7 | 0.419 | 0.605 | 0.644 | 0.539 | 0.269 | 0.868 | 0.853 | 0.789 | 0.784 | 0.791
5 | NCI-H322M |  | 0.937 | 1.12 | 0.982 | 0.864 | 0.796 | 1.03 | 0.515 | 0.889 | 0.314 | 0.285 |  | 0.269 |  | 0.821 | 0.811 | 0.769 | 0.574
6 | NCI-H358 | 0.477 | 0.707 | 0.614 | 0.657 | 0.541 | 0.725 | 1.02 | 0.89 | 1.02 | 0.158 | 0.193 | 0.265 | 0.166 | 0.21 | 0.425 | 0.367 | 0.296 | 0.257
7 | NCI-H441 | 1.12 | 0.937 | 1.15 | 1.02 | 1.07 | 0.511 | 0.709 | 0.594 | 0.615 | 0.591 | 0.726 |  | 0.508 | 1.07 | 0.892 | 0.93 | 0.738 | 0.944
8 | NCI-H460 | 0.988 | 0.967 | 1 | 0.96 | 1.11 | 0.401 | 0.445 | 0.536 | 0.621 | 0.439 | 0.578 | 0.429 | 0.362 | 0.52 | 0.54 | 0.492 | 0.488 | 0.478
9 | NCI-H520 | 0.908 | 0.842 | 0.704 | 0.689 | 0.769 | 0.97 | 0.89 | 0.838 | 1.07 | 0.202 | 0.227 | 0.206 | 0.178 | 0.589 | 0.548 | 0.675 | 0.499 | 0.589
10 | NCI-H596 | 0.952 | 0.925 | 0.997 | 0.451 | 0.818 | 0.554 | 0.33 | 0.538 | 0.304 |  |  | 0.617 | 0.233 | 0.797 | 0.827 | 0.658 | 0.659 | 0.787
11 | NCI-H647 | 1.16 | 1.3 | 1.13 | 0.702 | 0.302 | 0.957 | 0.943 | 1.19 | 1.11 | 0.175 | 0.187 | 0.119 | 0.207 | 0.624 | 0.626 | 0.593 | 0.463 | 0.208
12 | NCI-H650 | 0.898 | 0.991 | 1.06 | 1 | 1.07 | 1.06 | 0.934 | 0.997 | 0.863 | 0.447 | 0.418 | 0.305 | 0.308 | 0.547 | 0.443 | 0.403 | 0.404 | 0.423
13 | NCI-H661 | 0.941 | 1.01 | 1.05 | 0.955 | 0.963 | 0.592 | 0.524 | 0.557 | 0.521 | 0.866 | 1.15 | 0.908 | 0.873 | 0.252 | 0.277 | 0.247 | 0.279 | 0.27
14 | NCI-H727 | 0.835 | 0.791 | 0.99 | 0.705 | 0.702 | 0.578 | 0.627 | 0.441 | 0.556 | 0.317 | 0.319 | 0.505 | 0.274 | 0.653 | 0.659 | 0.572 | 0.462 | 0.544
15 | NCI-H838 | 1.01 | 0.939 | 1.02 | 0.994 | 1.09 | 0.89 | 0.97 | 0.907 | 1.18 | 0.293 | 0.344 |  | 0.191 | 0.63 | 0.616 | 0.676 | 0.568 | 0.635
16 | NCI-H1355 | 0.947 | 0.938 | 1.1 | 1 | 0.908 | 0.724 | 0.832 | 0.82 | 0.852 | 0.638 | 0.749 | 0.583 | 0.719 | 0.499 | 0.517 | 0.522 | 0.44 | 0.452
17 | NCI-H1395 | 0.865 | 0.92 | 1.03 | 0.94 | 0.911 | 1.08 | 1.19 |  | 1.39 | 0.437 | 0.458 | 0.354 | 0.46 | 0.458 | 0.428 | 0.494 | 0.435 | 0.461
18 | NCI-H1437 | 1.27 | 1.25 | 1.27 | 1.26 | 1.31 | 0.968 | 0.967 | 0.875 | 1.04 | 0.289 | 0.452 | 0.387 | 0.414 | 0.346 | 0.348 | 0.378 | 0.289 | 0.34
